Test results taken from publication PMC9024338, “Bruceine H Mediates EGFR-TKI Drug Persistence in NSCLC by Notch3-Dependent β-Catenin Activating FOXO3a Signaling” (Frontiers in Oncology, 2022).
Values joined by “and” are separate entries in the source; they are usually repeats but may differ in a detail not shown here. Identical values can stand only once. Like-named read-outs stand apart in the source and are kept apart here.

Columns and labels:
[1] = Preliminary pharmacokinetics in SD rats; type: in vivo; set-up: AUC (0-t), individual rats No1-No3 / AUC (0-∞), individual rats No1-No3: concentration or dose not given beside the values
Experimental: We administered BH by gavage and intravenous administration to SD rats (male, 200–220 g, n = 6) after they had fasted for 12 h. For oral gavage, the BH was dissolved in DMSO/0.5% CMC-Na (5/95, v/v/), and for intravenous administration, it was dissolved in DMSO/0.9% NaCl (5/95, v/v/), and then the blood samples were collected at intervals to determine the pharmacokinetic (PK) profiles of SD rats.

A549 cells = assay: Transwell migration and Matrigel invasion assays; type: cell-based, human; settings: dose-dependent, 12 h treatment
Experimental: The Transwell insert in a 24-well plate (8 μm, Corning, NY, USA) was taken out, and a 600-μl medium containing 10% FBS was added to the bottom chamber. The A549 cells were resuspended with 10% FBS culture medium, and the diluted cell suspension (3 × 10^5/300 μl) was cultured in the top chamber and then incubated with or without Matrigel (BD BioCoat). After 12 h, the medium in the top chamber was changed to RPMI-1640 without FBS, and BD or BH with different concentrations was added ([31]). After an additional 12 h, the cells that migrated or invaded the bottom side of the polycarbonate film were fixed with methanol for 30 min and then stained for 15 min with 0.1% crystal violet (Solarbio), after which their number was assessed under a microscope (×4, Nikon).

CC1=CC(=O)[C@@H](O)[C@]2(C)[C@H]3[C@@H](O)[C@H](O)[C@@]4(CO)OC[C@@]35[C@@H](C[C@@H]12)OC(=O)[C@H](O)[C@]54O [BH, Bruceine H]
concentration at 6 h ([1]; male, SD, rat, plasma, po, 10 mg/kg, p.o. 10 mg/kg, 6 h, read-out: Concentration of BH in rat plasma, individual rats No1-No3): 97.6 ng/mL
concentration at 8 h ([1]; male, SD, rat, plasma, po, 10 mg/kg, p.o. 10 mg/kg, 8 h, read-out: Concentration of BH in rat plasma, Mean): 42.3 ng/mL
concentration at 8 h ([1]; male, SD, rat, plasma, po, 10 mg/kg, p.o. 10 mg/kg, 8 h, read-out: Concentration of BH in rat plasma, individual rats No1-No3): 50.4 ng/mL
concentration at 12 h ([1]; male, SD, rat, plasma, po, 10 mg/kg, p.o. 10 mg/kg, 12 h, read-out: Concentration of BH in rat plasma, Mean): 16.4 ng/mL
concentration at 24 h ([1]; male, SD, rat, plasma, po, 10 mg/kg, p.o. 10 mg/kg, 24 h, read-out: Concentration of BH in rat plasma, Mean): 3.33 ng/mL
AUC(0-t) ([1]; male, SD, rat, plasma, po, 10 mg/kg, rat, p.o., read-out: AUC (0-t), Mean): 961 ng·h/mL
AUC(0-t) ([1]; male, SD, rat, plasma, po, 10 mg/kg, rat, p.o., read-out: AUC (0-t), individual rats No1-No3): 1070 ng·h/mL
AUC(0-inf) ([1]; male, SD, rat, plasma, po, 10 mg/kg, rat, p.o., read-out: AUC (0-∞), Mean): 976 ng·h/mL
concentration at 24 h ([1]; male, SD, rat, plasma, po, 10 mg/kg, rat, p.o., read-out: C_last, Mean): 2 ng/mL
Cmax ([1]; male, SD, rat, plasma, po, 10 mg/kg, rat, p.o., read-out: Cmax, Mean): 147 ng/mL
Cmax ([1]; male, SD, rat, plasma, po, 10 mg/kg, rat, p.o., read-out: Cmax, individual rats No2, No3): 145 ng/mL
MRT inf ([1]; male, SD, rat, plasma, po, 10 mg/kg, rat, p.o., read-out: MRT (0-∞), Mean): 5.92 h
MRT inf ([1]; male, SD, rat, plasma, po, 10 mg/kg, rat, p.o., read-out: MRT (0-∞), individual rats No1-No3): 5.5 h
half-life ([1]; male, SD, rat, plasma, po, 10 mg/kg, rat, p.o., read-out: t1/2z, Mean (converted)): 3.35 h
k el ([1]; male, SD, rat, plasma, po, 10 mg/kg, rat, p.o., read-out: λz, Mean (converted)): 6.89e-05 s⁻¹
AUC(0-inf) ([1]; male, Sprague-Dawley (SD), rat, plasma, iv, 2 mg/kg, rat, i.v., read-out: AUC (0-∞), Mean): 1050 ng·h/mL
MRT last ([1]; male, Sprague-Dawley (SD), rat, plasma, iv, 2 mg/kg, rat, i.v., read-out: MRT (0-t), Mean): 5.01 h
MRT last ([1]; male, Sprague-Dawley (SD), rat, plasma, iv, 2 mg/kg, rat, i.v., read-out: MRT (0-t), individual rats No1-No3): 4.99 h
AUC(0-inf) ([1]; male, Sprague-Dawley (SD), rat, plasma, po, 10 mg/kg, rat, p.o., read-out: AUC (0-∞), individual rats No1-No3): 1070 ng·h/mL
MRT last ([1]; male, Sprague-Dawley (SD), rat, plasma, po, 10 mg/kg, rat, p.o., read-out: MRT (0-t), Mean): 5.54 h
MRT last ([1]; male, Sprague-Dawley (SD), rat, plasma, po, 10 mg/kg, rat, p.o., read-out: MRT (0-t), individual rats No1-No3): 5.47 h
bioavailability ([1]; male, rat, plasma, SD rats, 10 mg/kg po vs 2 mg/kg iv, read-out: Oral bioavailability (F)): 20.4%
Tmax ([1]; male, rat, plasma, SD rats, 10 mg/kg po, read-out: Time of maximum concentration (T max)): 1 h
Concentration of BH in rat plasma, individual rats No1-No3 ([1]; p.o. 10 mg/kg, 0.25 h, 10 mg/kg): 10.5 ng/mL and 11.3 ng/mL
Concentration of BH in rat plasma, individual rats No1-No3 ([1]; p.o. 10 mg/kg, 0.5 h, 10 mg/kg): 55.4 ng/mL and 50.6 ng/mL
Concentration of BH in rat plasma, individual rats No1-No3 ([1]; p.o. 10 mg/kg, 0.75 h, 10 mg/kg): 98.5 ng/mL and 104.2 ng/mL
Concentration of BH in rat plasma, individual rats No1-No3 ([1]; p.o. 10 mg/kg, 1 h, 10 mg/kg): 145.3 ng/mL and 140.1 ng/mL
Concentration of BH in rat plasma, individual rats No1-No3 ([1]; p.o. 10 mg/kg, 2 h, 10 mg/kg): 117.7 ng/mL and 120.4 ng/mL
Concentration of BH in rat plasma, individual rats No1-No3 ([1]; p.o. 10 mg/kg, 4 h, 10 mg/kg): 99.4 ng/mL and 89.6 ng/mL
Concentration of BH in rat plasma, individual rats No1-No3 ([1]; p.o. 10 mg/kg, 6 h, 10 mg/kg): 75.3 ng/mL and 68.5 ng/mL
Concentration of BH in rat plasma, individual rats No1-No3 ([1]; p.o. 10 mg/kg, 8 h, 10 mg/kg): 35.4 ng/mL and 41.2 ng/mL
Concentration of BH in rat plasma, individual rats No1-No3 ([1]; p.o. 10 mg/kg, 12 h, 10 mg/kg): 16.8 ng/mL and 10.4 ng/mL and 22.1 ng/mL
Concentration of BH in rat plasma, individual rats No1-No3 ([1]; p.o. 10 mg/kg, 24 h, 10 mg/kg): 2.8 ng/mL and 1.8 ng/mL and 5.4 ng/mL
AUC (0-t), individual rats No1-No3 ([1]; rat, i.v.): 883.761 ng·h/mL and 981.633 ng·h/mL
AUC (0-∞), individual rats No1-No3 ([1]; rat, i.v.): 977.839 ng·h/mL and 1158.837 ng·h/mL
AUMC (0-t), Mean ([1]; rat, i.v.): 4747.166 h*h*ng/mL
AUMC (0-t), individual rats No1-No3 ([1]; rat, i.v.): 4816.632 h*h*ng/mL and 3928.001 h*h*ng/mL and 5496.865 h*h*ng/mL
AUMC (0-∞), Mean ([1]; rat, i.v.): 9005.111 h*h*ng/mL
AUMC (0-∞), individual rats No1-No3 ([1]; rat, i.v.): 6587.862 h*h*ng/mL and 7623.703 h*h*ng/mL and 12803.767 h*h*ng/mL
C0, Mean ([1]; rat, i.v.): 516.231 ng/mL
C0, individual rats No1-No3 ([1]; rat, i.v.): 543.621 ng/mL and 515.672 ng/mL and 489.401 ng/mL
CLz, individual rats No1-No3 ([1]; rat, i.v.): 34.08878 mL/min/kg and 28.76447 mL/min/kg
C_last, individual rats No1-No3 ([1]; rat, i.v.): 6.155 ng/mL and 10.282 ng/mL
MRT (0-t), individual rats No1-No3 ([1]; rat, i.v.): 4.445 h and 5.6 h
MRT (0-∞), individual rats No1-No3 ([1]; rat, i.v.): 7.796 h and 11.049 h
R_AUC (t/∞), Mean ([1]; rat, i.v.): 89.967%
R_AUC (t/∞), individual rats No1-No3 ([1]; rat, i.v.): 94.8% and 90.4% and 84.7%
VRT (0-t), Mean ([1]; rat, i.v.): 33.805 h^2
VRT (0-t), individual rats No1-No3 ([1]; rat, i.v.): 30.325 h^2 and 31.091 h^2 and 40 h^2
VRT (0-∞), Mean ([1]; rat, i.v.): 157.741 h^2
VRT (0-∞), individual rats No1-No3 ([1]; rat, i.v.): 73.322 h^2 and 156.114 h^2 and 243.787 h^2
Vz, individual rats No1-No3 ([1]; rat, i.v.): 31.260167 L/kg and 29.744277 L/kg
t1/2z, individual rats No1-No3 ([1]; rat, i.v.): 10.592 h and 11.943 h
λz, individual rats No1-No3 ([1]; rat, i.v.): 0.065 h⁻¹ and 0.058 h⁻¹
AUC (0-t), individual rats No1-No3 ([1]; rat, p.o.): 858.063 ng·h/mL and 958.688 ng·h/mL
AUC (0-∞), individual rats No1-No3 ([1]; rat, p.o.): 858.682 ng·h/mL and 1001.201 ng·h/mL
AUMC (0-t), Mean ([1]; rat, p.o.): 5336.656 h*h*ng/mL
AUMC (0-t), individual rats No1-No3 ([1]; rat, p.o.): 5831.875 h*h*ng/mL and 4275.963 h*h*ng/mL and 5902.131 h*h*ng/mL
AUMC (0-∞), Mean ([1]; rat, p.o.): 5811.834 h*h*ng/mL
AUMC (0-∞), individual rats No1-No3 ([1]; rat, p.o.): 5879.636 h*h*ng/mL and 4292.741 h*h*ng/mL and 7263.126 h*h*ng/mL
CLz, individual rat No1 ([1]; rat, p.o.): 155.9614 mL/min/kg
C_last, individual rats No1-No3 ([1]; rat, p.o.): 0.506 ng/mL and 0.202 ng/mL and 5.305 ng/mL
Cmax, individual rats No2, No3 ([1]; rat, p.o.): 140.1 ng/mL
MRT (0-t), individual rats No1-No3 ([1]; rat, p.o.): 4.983 h and 6.156 h
MRT (0-∞), individual rats No1-No3 ([1]; rat, p.o.): 4.999 h and 7.254 h
R_AUC (t/∞), Mean ([1]; rat, p.o.): 98.5%
R_AUC (t/∞), individual rats No1-No3 ([1]; rat, p.o.): 99.8% and 99.9% and 95.8%
VRT (0-t), Mean ([1]; rat, p.o.): 19.306 h^2
VRT (0-t), individual rats No1-No3 ([1]; rat, p.o.): 17.271 h^2 and 15.275 h^2 and 25.371 h^2
VRT (0-∞), Mean ([1]; rat, p.o.): 29.291 h^2
VRT (0-∞), individual rats No1-No3 ([1]; rat, p.o.): 18.047 h^2 and 15.623 h^2 and 54.204 h^2
Vz, individual rat No1 ([1]; rat, p.o.): 32.202018 L/kg
t1/2z, individual rats No1-No3 ([1]; rat, p.o.): 2.385 h and 2.122 h and 5.553 h
λz, individual rats No1-No3 ([1]; rat, p.o.): 0.291 h⁻¹ and 0.327 h⁻¹ and 0.125 h⁻¹
Transwell migration and invasion of A549 (A549 cells): significant anti-invasive and antimigratory actions
